Values belong to the compound of their own block, whether it stands above or below them. Calls of active or inactive are those of the source. No cut-off for these calls is given here.
What was measured:
Plasmodium falciparum [1] = test: Antimalarial activity against Plasmodium falciparum W2; type: functional, organism-based
Plasmodium yoelii [2] = test: Antimalarial activity against Plasmodium yoelii N67 infected in female Swiss mouse model assessed as suppression in parasitic growth at 20 mg/kg, po measured on day 4 relative to control; type: functional
Plasmodium yoelii [3] = test: Antimalarial activity against Plasmodium yoelii N67 infected in female Swiss mouse model assessed as mean survival time at 20 mg/kg administered orally; type: functional; settings: route po
Plasmodium yoelii [4] = test: Antimalarial activity against Plasmodium yoelii N67 infected in female Swiss mouse model assessed as mean survival time at 10 mg/kg administered orally; type: functional; settings: route po
Plasmodium yoelii [5] = test: Antimalarial activity against Plasmodium yoelii N67 infected in female Swiss mouse model assessed as suppression in parasitic growth at 20 mg/kg, po measured on day 7 relative to control; type: functional
Plasmodium yoelii [6] = test: Antimalarial activity against Plasmodium yoelii N67 infected in female Swiss mouse model assessed as parasite survival at 20 mg/kg, po measured after 7 days relative to control; type: functional; settings: N67, 168 h, time 7 day
Plasmodium yoelii [7] = test: Antimalarial activity against Plasmodium yoelii N67 infected in female Swiss mouse model assessed as suppression in parasitic growth at 10 mg/kg, po measured on day 4 relative to control; type: functional; settings: time 4 day
Plasmodium yoelii [8] = test: Antimalarial activity against Plasmodium yoelii N67 infected in female Swiss mouse model assessed as suppression in parasitic growth at 10 mg/kg, po measured on day 7 relative to control; type: functional; settings: time 7 day
Plasmodium falciparum [9] = test: Antimalarial activity against Plasmodium falciparum 3D7; type: functional, organism-based
Plasmodium falciparum [10] = test: Antimalarial activity against chloroquine-sensitive Plasmodium falciparum 3D7 infected in human erythrocytes assessed as reduction in parasite growth incubated for 72 hrs by SYBR green dye fluorimetric assay; type: functional, organism-based; settings: 3D7, Erythrocyte
Plasmodium falciparum [11] = test: Antimalarial activity against […] infected in human erythrocytes assessed as reduction in parasite growth incubated for 72 hrs by SYBR green dye fluorimetric assay; type: functional, organism-based; settings: K1, Erythrocyte
[12] = Resistance index, ratio of IC50 for antimalarial activity against […] infected in human erythrocytes to IC50 for antimalarial activity against chloroquine-sensitive Plasmodium falciparum 3D7 infected in erythrocytes; type: functional
[13] = Cytotoxicity against human HepG2 cells; type: toxicity, cell-based
[14] = Selectivity index, ratio of CC50 for cytotoxicity against human HepG2 cells to IC50 for antimalarial activity against chloroquine-sensitive Plasmodium falciparum 3D7 infected in human erythrocytes assessed as reduction in parasite growth incubated for 72 hrs by SYBR green dye fluorimetric assay; type: toxicity, cell-based; settings: read-out: Ratio CC50/IC50
Plasmodium falciparum [15] = test: Antimalarial activity against […] infected in human erythrocytes assessed as inhibition of parasitic growth at 5 uM incubated for 72 hrs by SYBR green dye fluorimetric assay relative to control; type: functional, K1, Erythrocyte; parameters: scale not given: the % may be the effect or the level left
Plasmodium falciparum [16] = test: Induction of morphological changes in asexual blood stage Plasmodium falciparum assessed as appearance of fragmentation at 1 uM incubated for 24 hrs by Geimsa-staining based light microscopic analysis; type: functional, organism-based
Plasmodium falciparum [17] = test: Induction of morphological changes in asexual blood stage Plasmodium falciparum assessed as appearance of condensed cytoplasm at 1 uM incubated for 24 hrs by Geimsa-staining based light microscopic analysis; type: functional, organism-based
Plasmodium falciparum [18] = test: Induction of morphological changes in asexual blood stage Plasmodium falciparum assessed as appearance of compact structure at 1 uM incubated for 24 hrs by Geimsa-staining based light microscopic analysis; type: functional, organism-based
Plasmodium falciparum [19] = test: Induction of morphological changes in asexual blood stage Plasmodium falciparum assessed as lack of prominent periphery in trophozoites at 1 uM incubated for 24 hrs by Geimsa-staining based light microscopic analysis; type: functional, organism-based
Plasmodium falciparum [20] = test: Induction of morphological changes in asexual blood stage Plasmodium falciparum assessed as appearance of healthy rings at 1 uM incubated for 48 to 72 hrs by Geimsa-staining based light microscopic analysis; type: functional, organism-based; settings: time 48-72 hrs
Plasmodium falciparum [21] = test: Induction of morphological changes in asexual blood stage Plasmodium falciparum assessed as appearance of schizonts at 1 uM incubated for 48 to 72 hrs by Geimsa-staining based light microscopic analysis; type: functional, organism-based; settings: time 48-72 hrs
Plasmodium berghei = test: Antimalarial activity against GFP-luciferase expressing liver stage Plasmodium berghei sporozoites infected in human HepG2 cells assessed as inhibition of parasitic growth by luminescence based analysis; type: functional, organism-based
Plasmodium yoelii [22] = test: Antimalarial activity against Plasmodium yoelii N67 infected in female Swiss mouse model assessed as reduction in parasitic growth at 100 mg/kg, po administered for 3 days and measured on day 28 by Giemsa staining based analysis; type: functional, organism-based; settings: time 28.0 day
Plasmodium yoelii [23] = test: Antimalarial activity against Plasmodium yoelii N67 infected in female Swiss mouse model assessed as inhibition of parasitic growth at 100 mg/kg, po administered for 4 days and measured on day 28 by Giemsa staining based analysis; type: functional, organism-based; settings: time 4.0 day
Plasmodium yoelii [24] = test: Antimalarial activity against Plasmodium yoelii N67 infected in female Swiss mouse model assessed as inhibition of parasitic growth at 100 mg/kg, po measured on day 7 relative to control; type: functional; parameters: scale not given: the % may be the effect or the level left; settings: time 7 day
Plasmodium yoelii [25] = test: Antimalarial activity against Plasmodium yoelii N67 infected in female Swiss mouse model assessed as inhibition of parasitic growth at 100 mg/kg, po measured on day 10 relative to control; type: functional; parameters: scale not given: the % may be the effect or the level left; settings: time 10 day
Plasmodium yoelii [26] = test: Antimalarial activity against Plasmodium yoelii N67 infected in female Swiss mouse model assessed as mean survival time at 100 mg/kg, po measured on day 17 relative to control; type: functional; settings: N67, 408 h, time 17 day
Plasmodium yoelii [27] = test: Antimalarial activity against Plasmodium yoelii N67 infected in female Swiss mouse model assessed as mean survival time at 100 mg/kg, po measured on day 24 relative to control; type: functional; settings: N67, 576 h, time 24 day
Plasmodium yoelii [28] = test: Antimalarial activity against Plasmodium yoelii N67 infected in female Swiss mouse model assessed as mean survival time at 100 mg/kg administered orally (reference value: 11 days); type: functional; settings: route po
[29] = Volume of distribution in male Swiss mouse at 100 mg/kg, po by LC-MS/MS analysis; type: ADME, organism-based; settings: in vivo
[30] = Half life in male Swiss mouse at 100 mg/kg, po by LC-MS/MS analysis; type: ADME, organism-based; settings: in vivo
[31] = Cmax in male Swiss mouse at 100 mg/kg, po by LC-MS/MS analysis; type: ADME, organism-based; settings: in vivo
[32] = Tmax in male Swiss mouse at 100 mg/kg, po by LC-MS/MS analysis; type: ADME, organism-based; settings: in vivo
[33] = Stability of the compound in simulated physiological fluid at pH 7.4 assessed as compound remaining measured after 120 mins by HPLC analysis relative to control; type: physicochemical; settings: read-out: Stability
[34] = Stability of the compound in simulated intestinal fluid at pH 6.8 assessed as compound remaining measured after 120 mins by HPLC analysis relative to control; type: physicochemical; settings: read-out: Stability
[35] = Stability of the compound in mouse plasma assessed as compound remaining measured after 120 mins by HPLC analysis relative to control; type: ADME, cell-free; settings: read-out: Stability
[36] = Clearance in male Swiss mouse at 100 mg/kg, po by LC-MS/MS analysis; type: ADME, organism-based; settings: in vivo
[37] = AUC in male Swiss mouse at 100 mg/kg, po by LC-MS/MS analysis; type: ADME, organism-based; settings: in vivo
[38] = MRT in male Swiss mouse at 100 mg/kg, po by LC-MS/MS analysis; type: ADME, organism-based; settings: in vivo

IC50 (Plasmodium falciparum [1]): 0.51 µM
Structure (SMILES): COc1cc(-c2nccc3c2[nH]c2ccccc23)cc(OC)c1OC

Structure (SMILES): CCN(CC)CCCC(C)Nc1ccnc2cc(Cl)ccc12 (centres undefined) [CHLOROQUINE]
Activity (Plasmodium yoelii [2]): 99%
MST (Plasmodium yoelii [3]): >28 days
MST (Plasmodium yoelii [4]): 16 days
Activity (Plasmodium yoelii [5]): 91%
survival at 20 mg/kg (Plasmodium yoelii [6]): 60%
Activity (Plasmodium yoelii [7]): 97.8%
Activity (Plasmodium yoelii [8]): 88%

Structure (SMILES): Clc1ccc(-n2cc(-c3cncc4ccccc34)nn2)cc1
IC50 (Plasmodium falciparum [9]): 36.9 µM

Structure (SMILES): O=C(NCc1cn(-c2cccc(C(F)(F)F)c2)nn1)c1cc2c([nH]c3ccccc32)c(-c2ccc(F)cc2)n1
IC50 (Plasmodium falciparum [10]): 0.84 µM
IC50 (Plasmodium falciparum [11]): 0.4 µM
Ratio IC50 [12]: 0.48
CC50 [13]: 195 µM
selectivity ratio at 72 h [14]: 232
Activity (Plasmodium falciparum [15]): 95.63%
Activity (Plasmodium falciparum [16]): Active; Irreversible Structural Deformations Observed
Activity (Plasmodium falciparum [17]): Active; Irreversible Structural Deformations Observed
Activity (Plasmodium falciparum [18]): Active; Irreversible Structural Deformations Observed
Activity (Plasmodium falciparum [19]): Active; Irreversible Structural Deformations Observed
Activity (Plasmodium falciparum [20]): inactive
Activity (Plasmodium falciparum [21]): inactive
IC50 (Plasmodium berghei): 5.88 µM
Activity (Plasmodium yoelii [22]): Active
Activity (Plasmodium yoelii [23]): Moderate_effect
Activity (Plasmodium yoelii [24]): 42.55%
Activity (Plasmodium yoelii [25]): 35.93%
survival at 100 mg/kg (Plasmodium yoelii [26]): 60%
survival at 100 mg/kg (Plasmodium yoelii [27]): 20%
MST (Plasmodium yoelii [28]): 17 days
Vd [29]: 4.97207 L/kg
t1/2 [30]: 3.74 h
Cmax [31]: 15.17 ng/mL
Tmax [32]: 4 h
remaining at 2 h [33]: ≥ 60%
remaining at 2 h [34]: ≥ 60%
remaining at 2 h [35]: ≥ 60%
CL [36]: 15.324 mL/min/kg
AUC [37]: 112 µg·h/mL
MRT [38]: 7.3 h
